pKi: −log10 of the molar value.
Experiments:
Assay type in all cases: biochemical
Stromelysin-1 = Stromelysin-1 (Homo sapiens, UniProt P08254); assay: Enzyme inhibition assay (fluorimetric, peptide substrate Dnp-Pro-Leu-Gly-Trp-Ala-D-Arg-NH2), stromelysin; conditions: Ki (app) assumed to approximate to the true Ki; pH 7.5, overnight
Protocol: (§1) The activity and selectivity of the compounds of the invention may be determined as described below. All enzyme assays to determine Ki values were performed using the peptide substrate […]. [M. Sharon Stock and Rober D. Gray, JBC 264, 4277-81, 1989]. The enzymes cleave at the Gly-Leu bond which can be followed fluorimetrically by measuring the increase in Trp fluorescence emission associated with the removal of the quenching dinitrophenol (Dnp) group. […] Brij 35 at either room temperature or 37° C. depending on the enzyme. The reaction is stopped by adjusting the pH to 4 using 0.1M sodium acetate buffer and the fluorescence read at an excitation wavelength of 280 nm and emission wavelength of 346 nm. […] For stromelysin and collagenase, Ki (app) was assumed to approximate to the true Ki as [S]<<Km for the substrate hydrolysis. For gelatinase the Ki was determined by performing the analyses at several substrate concentrations. A plot of Ki (app) vs. [S] then gave the true Ki as the value of the y-axis intercept.

Gelatinase 72KD = target: T1, Gelatinase 72KD (Homo sapiens, UniProt P08253); assay: Enzyme inhibition assay (fluorimetric, peptide substrate Dnp-Pro-Leu-Gly-Trp-Ala-D-Arg-NH2), gelatinase; conditions: true Ki from plot of Ki (app) vs. [S]; pH 7.5, overnight
T1 sequence (P08253 110-660): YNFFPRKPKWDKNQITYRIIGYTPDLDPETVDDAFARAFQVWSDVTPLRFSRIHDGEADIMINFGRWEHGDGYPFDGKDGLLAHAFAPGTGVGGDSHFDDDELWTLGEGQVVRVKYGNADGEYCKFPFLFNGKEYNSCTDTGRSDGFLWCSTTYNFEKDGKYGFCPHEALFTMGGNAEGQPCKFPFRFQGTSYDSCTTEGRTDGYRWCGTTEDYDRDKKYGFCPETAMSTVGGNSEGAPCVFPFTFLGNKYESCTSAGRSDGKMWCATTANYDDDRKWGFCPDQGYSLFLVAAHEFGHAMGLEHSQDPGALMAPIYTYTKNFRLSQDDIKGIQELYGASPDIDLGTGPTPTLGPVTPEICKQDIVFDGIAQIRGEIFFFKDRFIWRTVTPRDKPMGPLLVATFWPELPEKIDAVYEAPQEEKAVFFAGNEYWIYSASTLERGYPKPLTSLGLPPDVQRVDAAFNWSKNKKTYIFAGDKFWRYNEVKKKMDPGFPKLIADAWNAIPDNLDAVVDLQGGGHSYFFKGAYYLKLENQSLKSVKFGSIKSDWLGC
Protocol: as §1

Collagenase = target: T2, Collagenase (Homo sapiens, UniProt P03956); assay: Enzyme inhibition assay (fluorimetric, peptide substrate Dnp-Pro-Leu-Gly-Trp-Ala-D-Arg-NH2), collagenase; conditions: Ki (app) assumed to approximate to the true Ki; pH 7.5, overnight
T2 sequence (P03956 100-469): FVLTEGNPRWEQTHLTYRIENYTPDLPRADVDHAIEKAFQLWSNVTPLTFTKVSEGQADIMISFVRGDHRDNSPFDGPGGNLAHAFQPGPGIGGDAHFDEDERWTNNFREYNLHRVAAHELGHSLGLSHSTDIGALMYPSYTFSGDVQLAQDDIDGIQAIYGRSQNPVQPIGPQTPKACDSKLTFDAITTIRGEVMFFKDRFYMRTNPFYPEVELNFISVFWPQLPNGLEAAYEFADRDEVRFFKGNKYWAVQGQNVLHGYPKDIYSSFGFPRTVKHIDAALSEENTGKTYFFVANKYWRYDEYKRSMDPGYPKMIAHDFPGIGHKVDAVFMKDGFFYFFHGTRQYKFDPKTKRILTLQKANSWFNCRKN
Protocol: as §1

Sequence of Stromelysin-1 (P08254 100-477, species assumed): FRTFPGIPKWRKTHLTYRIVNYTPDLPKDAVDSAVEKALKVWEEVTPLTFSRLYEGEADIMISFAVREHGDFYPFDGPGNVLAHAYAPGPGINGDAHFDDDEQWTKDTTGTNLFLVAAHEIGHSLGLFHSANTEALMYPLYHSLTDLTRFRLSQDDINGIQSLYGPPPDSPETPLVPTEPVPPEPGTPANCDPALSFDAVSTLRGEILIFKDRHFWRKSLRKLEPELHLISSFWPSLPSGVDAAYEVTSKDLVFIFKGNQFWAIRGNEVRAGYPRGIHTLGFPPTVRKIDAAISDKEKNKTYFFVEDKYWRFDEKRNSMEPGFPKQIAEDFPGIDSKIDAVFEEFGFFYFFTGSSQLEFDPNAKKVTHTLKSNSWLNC

Row | Compound | pKi (Stromelysin-1) | pKi (Gelatinase 72KD) | pKi (Collagenase)
1 | O=C(C[C@@H](CCCc1ccc(Cl)cc1)C(=O)N[C@@H](CC1CCCCC1)C(=O)NCCNS(=O)(=O)N1CCOCC1)NO [Example 4, {4-(N-Hydroxyamino)-2(R)-[3-(4-chlorophenyl)propyl]succinyl}-L-β-cyclohexylalanine-N-[(2-morpholinesulphonylamino)ethyl]amide] | 8.76 | 10.85 | 6.52
2 | Cc1ccc(CCC[C@H](CC(=O)O)C(=O)N[C@@H](CC2CCCCC2)C(=O)NCCNS(=O)(=O)N2CCOCC2)cc1 [Example 2, {4-Hydroxy-2-(R)-[3-(4-methylphenyl)propyl]succinyl}-L-β-cyclohexylalanine-N-[(2-morpholinesulphonylamino)ethyl]amide] | 6.10 | 8.84 | 4.00
3 | Cc1ccc(CCC[C@H](CC(=O)NO)C(=O)N[C@@H](CC2CCCCC2)C(=O)NCCCNS(=O)(=O)N(C)C)cc1 [Example 6] | 8.17 |  | 6.10
4 | Cc1ccc(CCC[C@H](CC(=O)NO)C(=O)N[C@@H](CC2CCCCC2)C(=O)NCCNS(=O)(=O)N2CCOCC2)cc1 [Example 3, {4-(N-Hydroxyamino)-2(R)-[3-(4-methylphenyl)propyl]succinyl}-L-β-cyclohexylalanine-N-[(2-morpholinesulphonylamino)ethyl]amide] | 8.56 |  | 6.41
5 | Cc1ccc(CCC[C@H](CC(=O)NO)C(=O)N[C@@H](CC2=CCCCC2)C(=O)NCCNS(=O)(=O)N2CCOCC2)cc1 [Example 5, {4-(N-Hydroxyamino)-2(R)-[3-(4-methylphenyl)propyl]succinyl}-L-β-(1-cyclohexenylalanine)-N-[(2-morpholinesphonylamino)ethyl]amide] | 7.73 | 10.33 | 6.26

Source: patent US5530128A, “N-sulphonylamino derivatives of dipetide compounds as metalloproteinase inhibitors” (Celltech Therapeutics Limited, priority 1992, dated 1996)
